Where “and” joins values, the source holds several entries; their conditions need not be identical. Identical values can stand only once.
How the values were obtained:
MRGPRX4 W158A = target: T1, MRGPRX4 W158A (Homo sapiens, UniProt Q96LA9, L83S/W158A); assay: Calcium mobilization assay (FLIPR), MRGPRX4 W158A mutant; format: cell-based; settings: for calcium mobilization response (Fig. 3E and 3F dose-response): W158A
T1 construct: expressed in transfected cells; host or cells: HEK293T, transient
T1 sequence (Q96LA9 whole entry L83S/W158A): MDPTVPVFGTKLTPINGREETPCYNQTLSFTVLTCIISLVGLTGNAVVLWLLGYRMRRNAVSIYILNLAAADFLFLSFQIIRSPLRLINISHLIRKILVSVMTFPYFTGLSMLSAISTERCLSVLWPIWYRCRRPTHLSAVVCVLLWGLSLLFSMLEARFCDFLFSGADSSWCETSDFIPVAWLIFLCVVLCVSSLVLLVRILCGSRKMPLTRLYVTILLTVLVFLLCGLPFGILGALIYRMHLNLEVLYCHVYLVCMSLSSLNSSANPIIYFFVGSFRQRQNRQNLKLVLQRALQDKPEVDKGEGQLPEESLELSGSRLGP
Text: (§1) Fig. 3. […] (A) Cryo-EM density map of MRGPRX4-Gq in complex with fospropofol. (B) The density map of fospropofol and R82 of MRGPRX4. (C and D) Key molecular interactions between fospropofol and the hydrophilic (C) and hydrophobic (D) part of the agonist binding pocket of MRGPRX4. Amino acid residues interacting with fospropofol are shown as sticks. Hydrogen bond is shown as cyan dashed lines. […] Data are from at least three independent experiments, each performed in triplicate, and reported as the mean ± SEM. (E) and (F) were collected from the same sets of experiments.
(§2) To generate murine Mrgprs expressing cells, HEK293T cells (ATCC) were seeded on poly-D-lysine coated 96 well plate at 25,000 cells per well one day prior to transfection. HEK293T cells were transiently co-transfected with the mammalian expression plasmids carrying cDNA encoding the murine Mrgpr genes and plasmid inserted with cDNA encoding murine α-subunit of the heterotrimeric G15 protein (Gα15) in triplicates using Lipofectamine LTX reagents (Thermo Scientific). To generate WT, S83L, and alanine mutant MRGPRX4-expressing cells, HEK293T cells were seeded on poly-D-lysine coated 384 well plate at 12,000 cells per well one day prior to transfection. Mammalian expression plasmids pLX304 (vector from Addgene) carrying different MRGPRX4 coding sequences were transiently transfected into HEK293T cells in triplicates with Lipofectamine LTX reagents (Thermo Scientific). Intracellular calcium mobilization assays were performed after one day of transfection. Murine Mrgprs tested include Mrgpra1, Mrgpra2a, Mrgpra2b, Mrgpra3, Mrgpra4, Mrgpra6, Mrgpra9, Mrgpra10, Mrgpra11, Mrgpra12, Mrgpra14, Mrgprb5, Mrgprb6, Mrgprb10, Mrgprb11, and Mrgprc11. WT and mutant MRGPRX4 constructs tested include WT, S83L, R82A, R86A, R95A, W158A, Y250A, and Y254A.
To generate MRGPRX4 mutant constructs, site-directed mutagenesis was performed using Q5® Site-Directed Mutagenesis Kit (New England Biolabs). The primers were designed by the NEBaseChanger tool, with forward primers spanning designated mutated sequence corresponding to the desired amino acid substitutions. The plasmids with WT MRGPRX4 sequence served as the templates for polymerase chain reaction (PCR) amplification with Q5 high-fidelity polymerase and respective primer pairs according to the manufacturer’s conditions. Then, the linear PCR products underwent phosphorylation, ligation, and simultaneous degradation of template DNA by incubating them with a KLD enzyme mix consisting of T4 polynucleotide kinase, T4 DNA ligase, and DpnI at room temperature for 5 min. Subsequently, the mutated circular plasmids were transformed into NEB 5-alpha competent E. coli by heat-shock method, and the successfully transformed bacteria were selected on LB plates with selection antibiotics. The next day, the transformant colonies were picked, expanded in LB broth containing selection antibiotics overnight. Plasmids were isolated using QIAprep Spin Miniprep Kit (Qiagen) and subjected to sequencing to confirm the mutation.

MRGPRX4 R86A = target: T2, MRGPRX4 R86A (Homo sapiens, UniProt Q96LA9, L83S/R86A); assay: Calcium mobilization assay (FLIPR), MRGPRX4 R86A mutant; format: cell-based
T2 construct: expressed in transfected cells; host or cells: HEK293T, transient
T2 sequence (Q96LA9 whole entry L83S/R86A): as the sequence (Q96LA9 whole entry L83S/W158A) above, with R86A, A158W counted along it
Text: as §1
(§3) To generate murine Mrgprs expressing cells, HEK293T cells (ATCC) were seeded on poly-D-lysine coated 96 well plate at 25,000 cells per well one day prior to transfection. HEK293T cells were transiently co-transfected with the mammalian expression plasmids carrying cDNA encoding the murine Mrgpr genes and plasmid inserted with cDNA encoding murine α-subunit of the heterotrimeric G15 protein (Gα15) in triplicates using Lipofectamine LTX reagents (Thermo Scientific). To generate WT, S83L, and alanine mutant MRGPRX4-expressing cells, HEK293T cells were seeded on poly-D-lysine coated 384 well plate at 12,000 cells per well one day prior to transfection. […]

MRGPRX4 S83L (L83) = MRGPRX4 S83L (L83) (Homo sapiens, UniProt Q96LA9); assay: Calcium mobilization assay (FLIPR), S83L MRGPRX4 transiently expressed in HEK293T cells; format: cell-based; design: expressed in transfected cells; host or cells: HEK293T, transient; settings: for Calcium mobilization response (Fig. 4D dose-response): each cell one replicate
Sequence of MRGPRX4 S83L (L83) (Q96LA9 whole entry, stated change not applied): as the sequence (Q96LA9 whole entry L83S/W158A) above, with S83L, A158W counted along it
Text: Fig. 4. […] Hydrogen bond is shown as cyan dashed lines. […] Data are from three independent experiments, performed in triplicate. (E) pEC50 plots of various agonists toward S83- and L83-MRGPRX4 through calcium mobilization assay. […] Each data point represents an independent experiment, performed in triplicate. The extra sum-of-square F test was used to examine the difference in EC50 values. One-sided t-test was used for nateglinide. *p< 0.05, **p< 0.01 and ***p< 0.001. ns = no statistical significance. Both (D) and (E) are reported as the mean ± SEM. N.D.= no detectable response ≤ 100 μM.
HEK293 cells and MRGPRX4 stably expressed HEK293 cells were seeded in 100 μl culture media on 96-well plates at a density of 40,000 cells per well and incubated overnight. The next day, the media were replaced with a dye-loading solution from the FLIPR Calcium 5 assay kit (Molecular Devices), diluted in Hank's Balanced Salt Solution (HBSS) with 20 mM HEPES, pH 7.4. After 1 h of incubation at 37°C, cells were allowed to recover for 10 min in the dark at room temperature prior to performing intracellular calcium mobilization assay in a Flexstation-3 instrument with SoftMax®Pro 7.1 software (Molecular Devices). Serial concentrations of tested drugs were prepared in HBSS/HEPES solution at 3X concentration. […] Compounds were tested in triplicates and the signals were averaged. Responses were determined by subtracting the minimum signal (at the baseline before adding the drug) from the maximum signal (obtained after drug stimulation). Four-parameter logistic (4PL) curve fit was used to plot the dose-response curves. […] Both dose-response curve fitting and EC50s calculation are computed with GraphPad Prism software (version: 6.o or above).
as §2

HTLA cells = assay: PRESTO-Tango β-arrestin recruitment assay, parental HTLA cells without MRGPRX4 (control, fig. S1); format: cell-based
Text: Supplement NIHMS2038790-supplement-table.xlsx, sheet "fig. S1" | column: Concentration (M)

MRGPRX4 R82A = target: T3, MRGPRX4 R82A (Homo sapiens, UniProt Q96LA9, L83S/R82A); assay: Calcium mobilization assay (FLIPR), MRGPRX4 R82A mutant; format: cell-based
T3 construct: expressed in transfected cells; host or cells: HEK293T, transient
T3 sequence (Q96LA9 whole entry R82A/L83S): as the sequence (Q96LA9 whole entry L83S/W158A) above, with R82A, A158W counted along it
Text: as §1, §3

WT mice = assay: Itch behavioral study in WT mice across concentrations (fig. S4)
Protocol: Experimenters and subjects scoring the recorded videos were both blind to the mouse genotype and tested compounds. Behavioral tests comparing NP2-WT and NP2-X4+ scratching behavior were 6–12weeks old littermates including both genders. In brief, on the day preceding the experiment, animals were acclimated to the test chamber for at least 30 min and the experimenters performed mock injections 1–2 times in between. On the day of experiments, animals were habituated in test chambers for 10 min before receiving subcutaneous injection of 50ul compounds. Videos were recorded for 30 min after the injection. A bout of scratching was defined as a sustained scratching movement initiated by hindpaws toward the injection site (until the pause of the movement / withdrawal of the hindpaw). Scratching bouts were quantified within the 30 min record sessions.

- Calcium mobilization response at alanine mutant W158A vs WT (MRGPRX4 W158A): disrupted calcium mobilization
- calcium mobilization response (Fig. 3E and 3F dose-response) (MRGPRX4 W158A; 0.000333 M): -15.9549
- calcium mobilization response (Fig. 3E and 3F dose-response) (MRGPRX4 W158A; 0.001 M): -17.9356
- calcium mobilization response (Fig. 3E and 3F dose-response) (MRGPRX4 W158A; […]): -11.6633
- Calcium mobilization response at alanine mutant R86A vs WT (MRGPRX4 R86A): either greatly attenuated or abolished
- Calcium mobilization response (Fig. 4D dose-response) (MRGPRX4 S83L (L83); 5.08e-8 M): 12.9092
- Calcium mobilization response (Fig. 4D dose-response) (MRGPRX4 S83L (L83); 1.52e-7 M): 15.1222
- Calcium mobilization response (Fig. 4D dose-response) (MRGPRX4 S83L (L83); 4.57e-7 M): 12.9092
- EC50 (MRGPRX4 S83L (L83); Fig. 4E, unit not in the head, taken from Concentration (M) of the sheet and pEC50 [M] of Fig. 4E, read-out: EC50s (each well represents individual experiment)): 1.09e-05 M and 5.99e-05 M and 1.97e-05 M
- Calcium mobilization response at alanine mutant R82A vs WT (MRGPRX4 R82A): either greatly attenuated or abolished
Compound: O=C1NC(c2ccccc2)(c2ccccc2)C(=O)N1COP(=O)(O)O [Fosphenytoin]
- PRESTO-Tango response (fig. S1), single replicate (HTLA cells; concentration 3.91e-6 M): 0.004928 and 0.004598 and 0.01112 and 0.01116 and 0.003197 and 0.004271
- PRESTO-Tango response (fig. S1), single replicate (HTLA cells; concentration 7.81e-6 M): 0.007499 and 0.005683 and 0.007727 and 0.01002 and 0.00431 and 0.008159
- PRESTO-Tango response (fig. S1), single replicate (HTLA cells; concentration 1.56e-5 M): 0.004669 and 0.01023 and 0.009474 and 0.01705 and 0.007507 and 0.01409
- PRESTO-Tango response (fig. S1), single replicate (HTLA cells; concentration 3.13e-5 M): 0.006626 and 0.01061 and 0.0114 and 0.01987 and 0.004604 and 0.008542
- PRESTO-Tango response (fig. S1), single replicate (HTLA cells; concentration 6.25e-5 M): 0.01361 and 0.01504 and 0.01581 and 0.04311 and 0.006432 and 0.0129
- PRESTO-Tango response (fig. S1), single replicate (HTLA cells; concentration 0.00025 M): 0.01688 and 0.03926 and 0.02383 and 0.08171 and 0.008888 and 0.02076
- PRESTO-Tango response (fig. S1), single replicate (HTLA cells; concentration 0.0005 M): 0.0416 and 0.04542 and 0.03124 and 0.09673 and 0.01269 and 0.03191
- PRESTO-Tango response (fig. S1), single replicate (HTLA cells; concentration 0.001 M): 0.01837 and 0.05513 and 0.03077 and 0.1069 and 0.01168 and 0.03953
- PRESTO-Tango response (fig. S1), single replicate (HTLA cells; concentration 0.002 M): 0.01971 and 0.05409 and 0.03051 and 0.1054 and 0.01079 and 0.03852
- PRESTO-Tango response (fig. S1), single replicate (HTLA cells; concentration 0.004 M): 0.01886 and 0.05018 and 0.02929 and 0.08185 and 0.01164 and 0.032
- Scratching bouts (each well represents individual mouse) (WT mice; 1 mM subcutaneous nape injection): 0 (2×) and 16 (2×) and 11 and 26
- Scratching bouts (each well represents individual mouse) (WT mice; 10 mM subcutaneous nape injection): 3 and 4 and 1 and 0 and 26
